PubChem BioAssay (NCI)
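Protocol summary: plate cells (96-well), add compound at 5 concentrations, incubate 48 h, interpolate endpoints linearly. TGI: total growth inhibition.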

Experiments:
Assay in all cases: NCI-60 cell line screen, 48 h
[1] = test system: SF-268 CNS
[2] = test system: NCI-H23 lung
[3] = test system: SK-OV-3 ovarian
[4] = test system: 786-0 renal
[5] = test system: ACHN renal
[6] = test system: HL-60(TB) leukemia
[7] = test system: IGROV1 ovarian
[8] = test system: RPMI-8226 leukemia
[9] = test system: TK-10 renal
[10] = test system: SN12C renal
[11] = test system: HOP-18 NSCLC
[12] = test system: NCI-H226 lung
[13] = test system: SNB-19 CNS
[14] = test system: HOP-92 NSCLC
[15] = test system: SNB-75 CNS
[16] = test system: SK-MEL-28 melanoma
[17] = test system: OVCAR-3 ovarian
[18] = test system: M14 melanoma
[19] = test system: SF-295 CNS
[20] = test system: UACC-257 melanoma
[21] = test system: COLO 205 colon
[22] = test system: UACC-62 melanoma
[23] = test system: A549 NSCLC
[24] = test system: NCI-H522 lung
[25] = test system: OVCAR-8 ovarian
[26] = test system: KM12 colon
[27] = test system: SR leukemia
[28] = test system: SF-539 CNS
[29] = test system: UO-31 renal
[30] = test system: DLD-1 colon
[31] = test system: OVCAR-5 ovarian
[32] = test system: EKVX NSCLC
[33] = test system: M19-MEL melanoma
[34] = test system: HCC-2998 colon
[35] = test system: SW-620 colon
[36] = test system: K-562 leukemia
[37] = test system: DMS 114 small cell lung
[38] = test system: RXF 393 renal
[39] = test system: MOLT-4 leukemia
[40] = test system: XF 498 CNS
[41] = test system: HCT-15 colon
[42] = test system: SK-MEL-2 melanoma
[43] = test system: CCRF-CEM leukemia
[44] = test system: KM20L2 colon
[45] = test system: A498 renal
[46] = test system: HCT-116 colon
[47] = test system: RXF-631 renal
[48] = test system: U251 CNS
[49] = test system: MALME-3M melanoma
[50] = test system: CAKI-1 renal
[51] = test system: LXFL 529 NSCLC
[52] = test system: SK-MEL-5 melanoma
[53] = test system: HOP-62 NSCLC
[54] = test system: NCI-H460 lung
[55] = test system: OVCAR-4 ovarian
[56] = test system: SNB-78 CNS
[57] = test system: DMS 273 small cell lung
[58] = test system: HT29 colon
[59] = test system: LOX IMVI melanoma

C=CCC1(C(=O)OC(C)(C)C)C(OC)=C(C(=O)OC(C)(C)C)C2C1C(C(=O)OC(C)(C)C)=C(OC)C2(CC=C)C(=O)OC(C)(C)C (centres undefined)
TGI [1]: > 100 µM | TGI [2]: > 100 µM | TGI [3]: > 100 µM | TGI [4]: > 100 µM | TGI [5]: > 100 µM | TGI [6]: > 100 µM | TGI [7]: > 100 µM | TGI [8]: > 100 µM | TGI [9]: > 100 µM | TGI [10]: > 100 µM | TGI [11]: > 100 µM | TGI [12]: > 100 µM | TGI [13]: > 100 µM | TGI [14]: > 100 µM | TGI [15]: > 100 µM | TGI [16]: > 100 µM | TGI [17]: > 100 µM | TGI [18]: > 100 µM | TGI [19]: > 100 µM | TGI [20]: > 100 µM | TGI [21]: > 100 µM | TGI [22]: > 100 µM | TGI [23]: > 100 µM | TGI [24]: > 100 µM | TGI [25]: > 100 µM | TGI [26]: > 100 µM | TGI [27]: > 100 µM | TGI [28]: > 100 µM | TGI [29]: > 100 µM | TGI [30]: > 100 µM | TGI [31]: > 100 µM | TGI [32]: > 100 µM | TGI [33]: > 100 µM | TGI [34]: > 100 µM | TGI [35]: > 100 µM | TGI [36]: > 100 µM | TGI [37]: > 100 µM | TGI [38]: > 100 µM | TGI [39]: > 100 µM | TGI [40]: > 100 µM | TGI [41]: > 100 µM | TGI [42]: > 100 µM | TGI [43]: > 100 µM

COC(=O)[C@@H](C)[C@H]1CC[C@@](C)(CCC2=C(C)CC3C=C(C)CCC3C2(C)C)OO1 (some centres undefined)
TGI [44]: 3.13 µM | TGI [45]: 3.19 µM | TGI [1]: 3.76 µM | TGI [46]: 3.81 µM | TGI [2]: 3.49 µM | TGI [3]: 3.87 µM | TGI [4]: 0.263 µM | TGI [5]: 2.87 µM | TGI [6]: 0.449 µM | TGI [7]: 3.06 µM | TGI [8]: 5.98 µM | TGI [9]: 3.31 µM | TGI [47]: 4.63 µM | TGI [10]: 2.36 µM | TGI [12]: 4.13 µM | TGI [13]: 3.16 µM | TGI [15]: 2.94 µM | TGI [16]: 3.22 µM | TGI [17]: 3.42 µM | TGI [18]: 3.13 µM | TGI [19]: 3.2 µM | TGI [48]: 2.73 µM | TGI [20]: 7.61 µM | TGI [49]: 3.96 µM | TGI [21]: 4.38 µM | TGI [22]: 3.86 µM | TGI [50]: 2710 nM | TGI [23]: 3.12 µM | TGI [51]: 2.2 µM | TGI [52]: 2.87 µM | TGI [53]: 3.72 µM | TGI [24]: 0.331 µM | TGI [25]: 4.09 µM | TGI [26]: 2.9 µM | TGI [27]: 3.87 µM | TGI [28]: 3.27 µM | TGI [54]: 3.57 µM | TGI [29]: 2.76 µM | TGI [30]: 2.54 µM | TGI [31]: 3.27 µM | TGI [32]: 3.03 µM | TGI [33]: 3.75 µM | TGI [34]: 2.65 µM | TGI [35]: 1.01 µM | TGI [37]: 4.04 µM | TGI [55]: 3 µM | TGI [56]: 4.76 µM | TGI [38]: 2.84 µM | TGI [39]: 2.75 µM | TGI [57]: 4.43 µM | TGI [41]: 2.82 µM | TGI [58]: 2.96 µM | TGI [42]: 3.32 µM | TGI [43]: 0.39 µM

N/N=C(\c1nc2ccc(Cl)cc2[nH]c1=O)C(O)c1ccc(Cl)c(Cl)c1 (centres undefined)
TGI [44]: > 100 µM | TGI [1]: > 100 µM | TGI [46]: > 100 µM | TGI [2]: > 100 µM | TGI [3]: > 100 µM | TGI [4]: > 100 µM | TGI [5]: > 100 µM | TGI [6]: > 100 µM | TGI [7]: > 100 µM | TGI [8]: > 100 µM | TGI [9]: > 100 µM | TGI [47]: > 100 µM | TGI [10]: > 100 µM | TGI [12]: > 100 µM | TGI [13]: > 100 µM | TGI [14]: > 100 µM | TGI [15]: > 100 µM | TGI [16]: > 100 µM | TGI [17]: > 100 µM | TGI [18]: > 100 µM | TGI [19]: > 100 µM | TGI [48]: > 100 µM | TGI [20]: > 100 µM | TGI [49]: > 100 µM | TGI [21]: > 100 µM | TGI [22]: > 100 µM | TGI [23]: > 100 µM | TGI [51]: > 100 µM | TGI [52]: > 100 µM | TGI [53]: > 100 µM | TGI [24]: > 100 µM | TGI [25]: > 100 µM | TGI [26]: > 100 µM | TGI [27]: > 100 µM | TGI [28]: > 100 µM | TGI [54]: > 100 µM | TGI [29]: > 100 µM | TGI [59]: > 100 µM | TGI [30]: > 100 µM | TGI [31]: > 100 µM | TGI [32]: > 100 µM | TGI [33]: > 100 µM | TGI [34]: > 100 µM | TGI [35]: > 100 µM | TGI [36]: > 100 µM | TGI [37]: > 100 µM | TGI [55]: 87.8 µM | TGI [56]: > 100 µM | TGI [38]: > 100 µM | TGI [39]: > 100 µM | TGI [57]: > 100 µM | TGI [40]: > 100 µM | TGI [41]: > 100 µM | TGI [58]: > 100 µM | TGI [42]: > 100 µM | TGI [43]: > 100 µM

c1ccc(SC23C4C5C6C4C2C6C53)nc1 (centres undefined)
TGI [44]: > 100 µM | TGI [45]: > 100 µM | TGI [1]: > 31.6 µM | TGI [46]: > 100 µM | TGI [2]: > 100 µM | TGI [3]: > 100 µM | TGI [4]: > 100 µM | TGI [5]: > 100 µM | TGI [7]: > 100 µM | TGI [8]: > 54 µM | TGI [9]: > 100 µM | TGI [47]: > 100 µM | TGI [10]: > 100 µM | TGI [11]: > 100 µM | TGI [12]: > 100 µM | TGI [13]: > 100 µM | TGI [14]: > 100 µM | TGI [15]: > 100 µM | TGI [16]: > 100 µM | TGI [17]: > 100 µM | TGI [18]: > 100 µM | TGI [19]: > 100 µM | TGI [48]: > 100 µM | TGI [20]: > 100 µM | TGI [49]: > 100 µM | TGI [21]: > 100 µM | TGI [22]: > 100 µM | TGI [50]: > 100000 nM | TGI [23]: > 100 µM | TGI [51]: > 100 µM | TGI [52]: > 100 µM | TGI [53]: > 100 µM | TGI [24]: > 100 µM | TGI [25]: > 100 µM | TGI [26]: > 100 µM | TGI [27]: > 35 µM | TGI [28]: > 100 µM | TGI [54]: > 100 µM | TGI [29]: > 100 µM | TGI [59]: > 100 µM | TGI [30]: > 100 µM | TGI [31]: > 100 µM | TGI [32]: > 100 µM | TGI [33]: > 100 µM | TGI [34]: > 100 µM | TGI [35]: > 100 µM | TGI [36]: > 100 µM | TGI [37]: > 100 µM | TGI [55]: > 100 µM | TGI [56]: > 100 µM | TGI [39]: > 100 µM | TGI [57]: > 100 µM | TGI [41]: > 100 µM | TGI [58]: > 100 µM | TGI [42]: > 100 µM | TGI [43]: > 100 µM
